# Test results published in article PMC6917776, “Discovery of a chemical probe for PRDM9” (Nature Communications, 2019).
# Tests used:
# RPMI-8226 = assay: CelltiterGlo viability cell assay; format: cell-based; details: 8226, 6 day
# Protocol: (§1) Supplementary Figure 13. […] Viability of
# (§2) (a) Multiple Myeloma lines and (b) Breast Cancer cell lines following 3 or 6 days treatment with […]
# (§3) manufacturer’s instructions as described in the Supplementary methods. Data are normalized to DMSO control. N=3 biological replicates, +/- SEM. Source data are provided as a Source Data […]
# (§4) CelltiterGlo viability cell assay
# (§5) Cells were seeded in 96 well plates at per-well densities of 10000 (MDA-MB436, ATCC-HTB130), 15000 (8226, kind gift from Rodger Tiedemann, Princess Margaret Cancer Centre), […]
# (§6) kind gift from Rodger Tiedemann, Princess Margaret Cancer Centre) and 50000 (CAL851, kind gift from Mathieu Lupien, Princess Margaret Cancer Centre) and were treated at increasing concentrations of compounds ranging from 0.01 μM to 30 μM and assessed for proliferation using CelltiterGlo (Promega) following manufacturer’s instructions, as readout on days 3 and 6 as indicated. All cell lines were mycoplasma negative, as determined by MycoAlert™ Mycoplasma Detection Kit(Lonza). […]
# SKMM2 = assay: CelltiterGlo viability cell assay; format: cell-based
# Protocol: as §1, §2, §3, §4, §5, §6
smiles,measurement,setting,value
COc1cc(OC)cc(-c2noc(N3CCN(C)C4(CCN(c5ccccc5)CC4)C3)n2)c1 [MRK-740N],viability Average,RPMI-8226; 0.01 uM,98.95
same,viability Replicate 1,RPMI-8226; 0.01 uM,98.27
same,viability Replicate 2,RPMI-8226; 0.01 uM,97.90
same,viability Replicate 3,RPMI-8226; 0.01 uM,100.68
same,viability Average,RPMI-8226; 0.03 uM,98.07
same,viability Replicate 1,RPMI-8226; 0.03 uM,95.77
same,viability Replicate 2,RPMI-8226; 0.03 uM,97.65
same,viability Replicate 3,RPMI-8226; 0.03 uM,100.80
same,viability Average,RPMI-8226; 0.1 uM,98.68
same,viability Replicate 1,RPMI-8226; 0.1 uM,95.86
same,viability Replicate 2,RPMI-8226; 0.1 uM,100.16
same,viability Replicate 3,RPMI-8226; 0.1 uM,100.02
same,viability Average,RPMI-8226; 0.3 uM,96.98
same,viability Replicate 1,RPMI-8226; 0.3 uM,94.57
same,viability Replicate 2,RPMI-8226; 0.3 uM,97.72
same,viability Replicate 3,RPMI-8226; 0.3 uM,98.63
same,viability Average,RPMI-8226; 1 uM,97.56
same,viability Replicate 1,RPMI-8226; 1 uM,97.46
same,viability Replicate 2,RPMI-8226; 1 uM,98.37
same,viability Replicate 3,RPMI-8226; 1 uM,96.84
same,viability Average,RPMI-8226; 3 uM,100.28
same,viability Replicate 1,RPMI-8226; 3 uM,98.97
same,viability Replicate 2,RPMI-8226; 3 uM,101.92
same,viability Replicate 3,RPMI-8226; 3 uM,99.95
same,viability Average,RPMI-8226; 9.5 uM,107.21
same,viability Replicate 1,RPMI-8226; 9.5 uM,106.83
same,viability Replicate 2,RPMI-8226; 9.5 uM,105.76
same,viability Replicate 3,RPMI-8226; 9.5 uM,109.04
same,viability Average,RPMI-8226; 30 uM,80.58
same,viability Replicate 1,RPMI-8226; 30 uM,102.03
same,viability Replicate 2,RPMI-8226; 30 uM,55.75
same,viability Replicate 3,RPMI-8226; 30 uM,83.98
same,viability Average,"SKMM2; SKMM2, 3 day, 0.01 uM",99.67
same,viability Replicate 1,"SKMM2; SKMM2, 3 day, 0.01 uM",98.81
same,viability Replicate 2,"SKMM2; SKMM2, 3 day, 0.01 uM",100.27
same,viability Replicate 3,"SKMM2; SKMM2, 3 day, 0.01 uM",99.94
same,viability Average,"SKMM2; SKMM2, 3 day, 0.03 uM",99.81
same,viability Replicate 1,"SKMM2; SKMM2, 3 day, 0.03 uM",100.19
same,viability Replicate 2,"SKMM2; SKMM2, 3 day, 0.03 uM",99.28
same,viability Replicate 3,"SKMM2; SKMM2, 3 day, 0.03 uM",99.96
same,viability Average,"SKMM2; SKMM2, 3 day, 0.1 uM",99.75
same,viability Replicate 1,"SKMM2; SKMM2, 3 day, 0.1 uM",99.33
same,viability Replicate 2,"SKMM2; SKMM2, 3 day, 0.1 uM",101.27
same,viability Replicate 3,"SKMM2; SKMM2, 3 day, 0.1 uM",98.65
same,viability Average,"SKMM2; SKMM2, 3 day, 0.3 uM",100.91
same,viability Replicate 1,"SKMM2; SKMM2, 3 day, 0.3 uM",100.74
same,viability Replicate 2,"SKMM2; SKMM2, 3 day, 0.3 uM",101.32
same,viability Replicate 3,"SKMM2; SKMM2, 3 day, 0.3 uM",100.69
same,viability Average,"SKMM2; SKMM2, 3 day, 1 uM",99.32
same,viability Replicate 1,"SKMM2; SKMM2, 3 day, 1 uM",99.24
same,viability Replicate 2,"SKMM2; SKMM2, 3 day, 1 uM",100.37
same,viability Replicate 3,"SKMM2; SKMM2, 3 day, 1 uM",98.34
same,viability Average,"SKMM2; SKMM2, 3 day, 3 uM",97.16
same,viability Replicate 1,"SKMM2; SKMM2, 3 day, 3 uM",96.17
same,viability Replicate 2,"SKMM2; SKMM2, 3 day, 3 uM",98.52
same,viability Replicate 3,"SKMM2; SKMM2, 3 day, 3 uM",96.79
same,viability Average,"SKMM2; SKMM2, 3 day, 9.5 uM",95.36
same,viability Replicate 1,"SKMM2; SKMM2, 3 day, 9.5 uM",96.79
same,viability Replicate 2,"SKMM2; SKMM2, 3 day, 9.5 uM",94.04
same,viability Replicate 3,"SKMM2; SKMM2, 3 day, 9.5 uM",95.26
same,viability Average,"SKMM2; SKMM2, 3 day, 30 uM",58.34
same,viability Replicate 1,"SKMM2; SKMM2, 3 day, 30 uM",67.94
same,viability Replicate 2,"SKMM2; SKMM2, 3 day, 30 uM",41.11
same,viability Replicate 3,"SKMM2; SKMM2, 3 day, 30 uM",65.95
same,viability Average,"SKMM2; SKMM2, 6 day, 0.01 uM",99.21
same,viability Replicate 1,"SKMM2; SKMM2, 6 day, 0.01 uM",91.53
same,viability Replicate 2,"SKMM2; SKMM2, 6 day, 0.01 uM",105.08
same,viability Replicate 3,"SKMM2; SKMM2, 6 day, 0.01 uM",101.01
same,viability Average,"SKMM2; SKMM2, 6 day, 0.03 uM",96.26
same,viability Replicate 1,"SKMM2; SKMM2, 6 day, 0.03 uM",90.23
same,viability Replicate 2,"SKMM2; SKMM2, 6 day, 0.03 uM",98.46
same,viability Replicate 3,"SKMM2; SKMM2, 6 day, 0.03 uM",100.08
same,viability Average,"SKMM2; SKMM2, 6 day, 0.1 uM",98.07
same,viability Replicate 1,"SKMM2; SKMM2, 6 day, 0.1 uM",90.96
same,viability Replicate 2,"SKMM2; SKMM2, 6 day, 0.1 uM",102.71
same,viability Replicate 3,"SKMM2; SKMM2, 6 day, 0.1 uM",100.56
same,viability Average,"SKMM2; SKMM2, 6 day, 0.3 uM",97.57
same,viability Replicate 1,"SKMM2; SKMM2, 6 day, 0.3 uM",90.30
same,viability Replicate 2,"SKMM2; SKMM2, 6 day, 0.3 uM",102.21
same,viability Replicate 3,"SKMM2; SKMM2, 6 day, 0.3 uM",100.20
same,viability Average,"SKMM2; SKMM2, 6 day, 1 uM",94.68
same,viability Replicate 1,"SKMM2; SKMM2, 6 day, 1 uM",89.98
same,viability Replicate 2,"SKMM2; SKMM2, 6 day, 1 uM",95.60
same,viability Replicate 3,"SKMM2; SKMM2, 6 day, 1 uM",98.45
same,viability Average,"SKMM2; SKMM2, 6 day, 3 uM",95.79
same,viability Replicate 1,"SKMM2; SKMM2, 6 day, 3 uM",90.06
same,viability Replicate 2,"SKMM2; SKMM2, 6 day, 3 uM",96.19
same,viability Replicate 3,"SKMM2; SKMM2, 6 day, 3 uM",101.13
same,viability Average,"SKMM2; SKMM2, 6 day, 9.5 uM",94.06
same,viability Replicate 1,"SKMM2; SKMM2, 6 day, 9.5 uM",88.71
same,viability Replicate 2,"SKMM2; SKMM2, 6 day, 9.5 uM",96.00
same,viability Replicate 3,"SKMM2; SKMM2, 6 day, 9.5 uM",97.48
same,viability Average,"SKMM2; SKMM2, 6 day, 30 uM",64.98
same,viability Replicate 1,"SKMM2; SKMM2, 6 day, 30 uM",81.69
same,viability Replicate 2,"SKMM2; SKMM2, 6 day, 30 uM",45.98
same,viability Replicate 3,"SKMM2; SKMM2, 6 day, 30 uM",67.29
